Measured values published in patent publication US20250092065A1, “2-(INDAZOL-5-YL)-6-(PIPERIDIN-4-YL)-1,7-NAPHTHYRIDINE DERIVATIVES AND RELATED COMPOUNDS AS MODULATORS FOR SPLICING NUCLEIC ACIDS AND FOR THE TREATMENT OF PROLIFERATIVE DISEASES” (REMIX THERAPEUTICS INC., priority 2022, published 2025).
Read-outs that look alike come from different tables or passages of the source.

What was measured:
SMN2 mRNA = test: RT-qPCR splicing assay, SMN2 mRNA; assay type: cell-based, human; conditions: canonical junction qPCR panel, Table 4, read-out: SMN2 IC50 (decrease in CJ mRNA levels)
In short: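 A673 or K562 cells treated 24 h at 37 °C with an 11-point 3-fold dilution series (top 10 uM, DMSO ≤0.25%). Lysates went directly to one-step RT-qPCR quantifying canonical (CJ) and alternative-exon (AJ) junctions, normalized to GAPDH, GUSB or PPIA. Values from ΔΔCt versus DMSO, RQ = 2^(−ΔΔCt), expressed as percentage response.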

MYB = test: HiBiT protein abundance assay, MYB (K562 HiBiT knock-in); assay type: cell-based, human; conditions: HiBiT knock-in K562 cells, 24 hours, top dose 10 μM
In short: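 Endogenously HiBiT-tagged K562 lines were treated for 24 h at 37 °C with 10-point 3-fold dilutions (top 10 μM final, DMSO ≤0.25%). Lytic LgBiT complementation luminescence was normalized between unmodified K562 (PC) and DMSO-treated tagged cells (NC); IC50 was interpolated at 50% from a four-parameter logistic fit.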

K562 cells = test: Cell Titer Glo 2.0 cell viability (toxicity) assay, K562; conditions: 500 cells/well, 72 hours

| IC50 (SMN2 mRNA; Homo sapiens) | IC50 (MYB) | IC50 (SMN2 mRNA) | SMILES | Effect of Exemplary Compounds on Cell Viability, K562 (K562 cells) |
| --- | --- | --- | --- | --- |
| < 100 nM | < 100 nM | – | Cn1cc2cc(-c3ccc4nc(N5CCC(NC6CC6)C5)ccc4n3)c(O)c(F)c2n1 (racemic) [Compound 287, 5-{6-[3-(cyclopropylamino)pyrrolidin-1-yl]-1,5-naphthyridin-2-yl}-7-fluoro-2-methylindazol-6-ol; trifluoroacetic acid] | A (A represents <100 nM) |
| < 100 nM | < 100 nM | – | CC(C)N[C@@H]1CCN(c2ccc3nc(-c4cc5cn(C)nc5c(F)c4O)ccc3n2)C1 (single isomer, unassigned) [Compound 285] | A (A represents <100 nM) |
| < 100 nM | < 100 nM | – | CC(C)N[C@H]1CCN(c2ccc3nc(-c4cc5cn(C)nc5c(F)c4O)ccc3n2)C1 (single isomer, unassigned) [Compound 286] | A (A represents <100 nM) |
| < 100 nM | < 100 nM | – | Cc1c(O)c(-c2ccc3nc(N4CC[C@@H](NC5CCC5)C4)ccc3n2)cc2cn(C)nc12 (single isomer, unassigned) [Compound 289] | A (A represents <100 nM) |
| < 100 nM | < 100 nM | – | Cc1c(O)c(-c2ccc3nc(N4CC[C@H](NC5CCC5)C4)ccc3n2)cc2cn(C)nc12 (single isomer, unassigned) [Compound 290] | A (A represents <100 nM) |
| < 100 nM | 100 to 1000 nM | – | Cc1nc2cc(O)c(-c3ccc4nc(N5CCC(NCC6CC6)C5)ccc4n3)cc2o1 (single isomer, unassigned) [Compound 291, 6-(6-{3-[(cyclopropylmethyl)amino]pyrrolidin-1-yl}-1,5-naphthyridin-2-yl)-2-methyl-1,3-benzoxazol-5-ol] | B (B represents 100-1000 nM) |
| – | 100 to 1000 nM | < 100 nM | Cc1nc2cc(O)c(-c3ccc4nc(N5CCC(NCC6CC6)C5)ccc4n3)cc2o1 (single isomer, unassigned) [Compound 292, 6-(6-{3-[(cyclopropylmethyl)amino]pyrrolidin-1-yl}-1,5-naphthyridin-2-yl)-2-methyl-1,3-benzoxazol-5-ol] | B (B represents 100-1000 nM) |
| < 100 nM | < 100 nM | – | Cc1nc2c(C)c(O)c(-c3ccc4nc(N5CC[C@@H](NCC6CC6)C5)ccc4n3)cc2o1 (single isomer, unassigned) [Compound 295] | B (B represents 100-1000 nM) |
| < 100 nM | < 100 nM | – | Cc1nc2c(C)c(O)c(-c3ccc4nc(N5CC[C@H](NCC6CC6)C5)ccc4n3)cc2o1 (single isomer, unassigned) [Compound 296] | B (B represents 100-1000 nM) |
| < 100 nM | < 100 nM | – | Cn1cc2cc(-c3ccc4nc(N5CC[C@@H](N[C@H]6C[C@@H](F)C6)C5)ccc4n3)c(O)cc2n1 (single isomer, unassigned) [Compound 300] | B (B represents 100-1000 nM) |
| < 100 nM | < 100 nM | – | Cn1cc2cc(-c3ccc4nc(N5CC[C@@H](NCC6CC6)C5)ccc4n3)c(O)c(F)c2n1 (single isomer, unassigned) [Compound 303] | A (A represents <100 nM) |
| < 100 nM | < 100 nM | – | Cn1cc2cc(-c3ccc4nc(N5CC[C@H](NCC6CC6)C5)ccc4n3)c(O)c(F)c2n1 (single isomer, unassigned) [Compound 304] | A (A represents <100 nM) |
| < 100 nM | < 100 nM | – | Cn1cc2cc(-c3ccc4nc(N5CC[C@@H](NC6CC6)C5)ccc4n3)c(O)c(F)c2n1 (single isomer, unassigned) [Compound 305] | A (A represents <100 nM) |
| < 100 nM | < 100 nM | – | Cn1cc2cc(-c3ccc4nc(N5CC[C@H](NC6CC6)C5)ccc4n3)c(O)c(F)c2n1 (single isomer, unassigned) [Compound 306] | A (A represents <100 nM) |
| < 100 nM | < 100 nM | – | Cc1nc2c(F)c(O)c(-c3ccc4nc(N5CC[C@@H](NC6CCC6)C5)ccc4n3)cc2o1 (single isomer, unassigned) [Compound 307] | A (A represents <100 nM) |
| < 100 nM | < 100 nM | – | Cc1nc2c(F)c(O)c(-c3ccc4nc(N5CC[C@H](NC6CCC6)C5)ccc4n3)cc2o1 (single isomer, unassigned) [Compound 308] | A (A represents <100 nM) |
| < 100 nM | < 100 nM | – | Cc1nc2c(C)c(O)c(-c3ccc4nc(N5CC[C@@H](NC6(C)CC6)C5)ccc4n3)cc2o1 (single isomer, unassigned) [Compound 310] | A (A represents <100 nM) |

| IC50 (SMN2 mRNA; Homo sapiens) | IC50 (MYB) | IC50 (SMN2 mRNA) | SMILES | Effect of Exemplary Compounds on Cell Viability, K562 (K562 cells) |
| --- | --- | --- | --- | --- |
| < 100 nM | 100 to 1000 nM | – | Cc1nc2c(C)c(O)c(-c3ccc4nc(N5CC[C@H](NC6(C)CC6)C5)ccc4n3)cc2o1 (single isomer, unassigned) [Compound 311] | C (C represents 1000-9999 nM) |
| < 100 nM | < 100 nM | – | Cc1nc2c(C)c(O)c(-c3ccc4nc(N5CC[C@@H](NC(C)C)C5)ccc4n3)cc2o1 (single isomer, unassigned) [Compound 313] | A (A represents <100 nM) |
| < 100 nM | < 100 nM | – | Cc1nc2c(C)c(O)c(-c3ccc4nc(N5CC[C@H](NC(C)C)C5)ccc4n3)cc2o1 (single isomer, unassigned) [Compound 314] | A (A represents <100 nM) |
| < 100 nM | < 100 nM | – | Cn1cc2cc(-c3ccc4nc(N5CC[C@@H](NC6CCC6)C5)ccc4n3)c(O)c(F)c2n1 (single isomer, unassigned) [Compound 316] | A (A represents <100 nM) |
| < 100 nM | < 100 nM | – | Cn1cc2cc(-c3ccc4nc(N5CC[C@H](NC6CCC6)C5)ccc4n3)c(O)c(F)c2n1 (single isomer, unassigned) [Compound 317] | A (A represents <100 nM) |
| < 100 nM | < 100 nM | – | Cc1c(O)c(-c2ccc3nc(N4CC[C@@H](NC(C)C)C4)ccc3n2)cc2cn(C)nc12 (single isomer, unassigned) [Compound 319] | A (A represents <100 nM) |
| < 100 nM | < 100 nM | – | Cc1c(O)c(-c2ccc3nc(N4CC[C@H](NCC5CC5)C4)ccc3n2)cc2cn(C)nc12 (single isomer, unassigned) [Compound 321] | B (B represents 100-1000 nM) |
| < 100 nM | < 100 nM | – | Cc1c(O)c(-c2ccc3nc(N4CC[C@@H](NCC5CC5)C4)ccc3n2)cc2cn(C)nc12 (single isomer, unassigned) [Compound 322] | B (B represents 100-1000 nM) |
| < 100 nM | < 100 nM | – | Cc1nc2c(F)c(O)c(-c3ccc4nc(N5CC[C@@H](NCC6CC6)C5)ccc4n3)cc2o1 (single isomer, unassigned) [Compound 323] | A (A represents <100 nM) |
| < 100 nM | < 100 nM | – | Cc1nc2c(F)c(O)c(-c3ccc4nc(N5CC[C@H](NCC6CC6)C5)ccc4n3)cc2o1 (single isomer, unassigned) [Compound 324] | A (A represents <100 nM) |
| < 100 nM | < 100 nM | – | Cc1nc2c(F)c(O)c(-c3ccc4nc(N5CC[C@@H](NC(C)C)C5)ccc4n3)cc2o1 (single isomer, unassigned) [Compound 329] | A (A represents <100 nM) |
| < 100 nM | < 100 nM | – | Cc1nc2c(F)c(O)c(-c3ccc4nc(N5CC[C@H](NC(C)C)C5)ccc4n3)cc2o1 (single isomer, unassigned) [Compound 330] | A (A represents <100 nM) |
| < 100 nM | < 100 nM | – | Cn1cc2cc(-c3ccc4nc(N5CC[C@H](N[C@H]6C[C@H](F)C6)C5)ccc4n3)c(O)c(F)c2n1 (single isomer, unassigned) [Compound 347] | A (A represents <100 nM) |
| < 100 nM | < 100 nM | – | Cc1nc2cc(O)c(-c3ccc4nc(N5CC[C@@H](N[C@H]6C[C@H](F)C6)C5)ccc4n3)cc2o1 (single isomer, unassigned) [Compound 348] | C (C represents 1000-9999 nM) |
| < 100 nM | < 100 nM | – | Cn1cc2cc(-c3ccc4nc(N5CC[C@@H](N[C@H]6C[C@H](F)C6)C5)ccc4n3)c(O)c(F)c2n1 (single isomer, unassigned) [Compound 349] | B (B represents 100-1000 nM) |
| < 100 nM | 100 to 1000 nM | – | Cc1cn2nc(-c3ccc4nc(N5CCC(NC6CC6)C5)ccc4n3)c(O)c2c(C)n1 (centres unmarked) [Compound 252] | – |
